The source of these data is the supplement of paper PMC11208160.

The data set in a line: recombinant UMI read abundance after kanamycin selection (control-corrected) (log10(CPM+1)); higher = more efficient recombination; extreme values may be limits of the assay; sequences stand for … in AGTGCAGAGAAAATCGGCCAGTTTTCTCTGCCTGCAGTCCGCATGCCGTGGGACCCCTTGGGTTCTAACCTGTTGCCTAGATTTATGCAGCGGACTGCCTTTCTCCCAAAGTGATAAACCGG…AGGTTGGTTTCACT; site = the 11-nt donor. The method in brief:
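Sequenced counts of recombinant UMIs were turned into CPM, averaged across replicates and scaled with control-derived factors. The reported figure is log10(CPM+1). Those UMIs, each 12 nt long, tagged donor and donor-binding-loop pairs on a plasmid with a promoterless kanamycin gene, screened as a pool in Escherichia coli with IPTG (0.07 mM) plus kanamycin or without selection.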
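Note: IS621 bridge recombinase in Escherichia coli cells against a fixed T5 target plasmid.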

As for “GTATGCACATGGACCGGTTTTCCCGGTAATCCGTATTTGTA (site GTATGCACTCA)”, the “recombinant UMI read abundance (log10)” value was determined as 0.0356. For the sequence “GTATGCACATGGACCGGTTTTCCCGGTAATCCGTATTTGTA (site GTATGCACTGA)”, the “recombinant UMI read abundance (log10)” value came to 1.72. As to “GTATGCACATGGACCGGTTTTCCCGGTAATCCGTATTTGTA (site GTATGCACTTA)”, the “recombinant UMI read abundance (log10)” value is 2.07.

For “GTATGCACATGGACCGGTTTTCCCGGTAATCCGTATTTGTA (site GTATGCACTTC)”, the “recombinant UMI read abundance (log10)” value is 0.0256. For the sequence “GTATGCACATGGACCGGTTTTCCCGGTAATCCGTATTTGTA (site GTATGCACTTG)”, the “recombinant UMI read abundance (log10)” value is 1.71.

Take “GTATGCACATGGACCGGTTTTCCCGGTAATCCGTATTTGTA (site GTATGCACTTT)”: the “recombinant UMI read abundance (log10)” value turned out to be 0.44. The figure for “GTATGCACATGGACCGGTTTTCCCGGTAATCCGTATTTGTA (site GTATGCCCTTA)” is 0.0248. “GTATGCACATGGACCGGTTTTCCCGGTAATCCGTATTTGTA (site GTATGCGCTTA)”: the “recombinant UMI read abundance (log10)” value was determined as 0.376. Consider “GTATGCACATGGACCGGTTTTCCCGGTAATCCGTATTTGTA (site GTATGCTCTTA)”, for which the “recombinant UMI read abundance (log10)” value came out at 1.19. The figure for “GTATGCACATGGACCGGTTTTCCCGGTAATCCGTATTTGTA (site GTATGGACTTA)” is 0.0258; for “GTATGCACATGGACCGGTTTTCCCGGTAATCCGTATTTGTA (site GTATGTACTTA)” it is 0.274. The figure for “GTATGCACATGGACCGGTTTTCCCGGTAATCCGTATTTGTA (site GTATTCACTTA)” is 1.3; for “GTATGCACATGGACCGGTTTTCCCGGTAATCCGTATTTGTA (site GTCTGCACTTA)” it is 0.0377; for “GTATGCACATGGACCGGTTTTCCCGGTAATCCGTATTTGTA (site GTGTGCACTTA)” it is 0.384. Turning to “GTATGCACATGGACCGGTTTTCCCGGTAATCCGTATTTGTA (site GTTTGCACTTA)”, the “recombinant UMI read abundance (log10)” value was 0. Turning to “GTATGCACATGGACCGGTTTTCCCGGTAATCCGTATTTGTA (site TTATGCACTTA)”, the “recombinant UMI read abundance (log10)” value was 0.185. For the sequence “GTATGTACATGGACCGGTTTTCCCGGTAATCCGTATTTGTA (site GTATGAACTTA)”, the “recombinant UMI read abundance (log10)” value was 1.74.

For the sequence “GTATGTACATGGACCGGTTTTCCCGGTAATCCGTATTTGTA (site GTATGCACTTA)”, the “recombinant UMI read abundance (log10)” value amounted to 1.61. “GTATGTACATGGACCGGTTTTCCCGGTAATCCGTATTTGTA (site GTATGGACTTA)”: the “recombinant UMI read abundance (log10)” value stood at 0.499. For the sequence “GTATGTACATGGACCGGTTTTCCCGGTAATCCGTATTTGTA (site GTATGTACTTA)”, the “recombinant UMI read abundance (log10)” value was 2.09. With “GTATGTCCATGGACCGGTTTTCCCGGTAATCCGTATTTGAG (site GTATGTCCTCT)” the figure was 0.428. For the sequence “GTATTAACATGGACCGGTTTTCCCGGTAATCCGTATTTGTG (site GTATTAACTCA)”, the “recombinant UMI read abundance (log10)” value was 2.02.

For the sequence “GTCACGCCATGGACCGGTTTTCCCGGTAATCCGTATTTGTA (site GACACGCCTTA)”, the “recombinant UMI read abundance (log10)” value turned out to be 0.00466. For “GTCACGCCATGGACCGGTTTTCCCGGTAATCCGTATTTGTA (site GCCACGCCTTA)”, the “recombinant UMI read abundance (log10)” value was 0. Regarding “GTCACGCCATGGACCGGTTTTCCCGGTAATCCGTATTTGTA (site GGCACGCCTTA)”, the “recombinant UMI read abundance (log10)” value was 0.00905.

For “GTCACGCCATGGACCGGTTTTCCCGGTAATCCGTATTTGTA (site GTCACGCCTTA)”, the “recombinant UMI read abundance (log10)” value amounted to 0.476. Regarding “GTCACGGCATGGACCGGTTTTCCCGGTAATCCGTATTTGAA (site GTCACGGCTTT)”, the “recombinant UMI read abundance (log10)” value stood at 1.2.

In the case of “GTCACGTCATGGACCGGTTTTCCCGGTAATCCGTATTTGCG (site GTCACGTCTCG)”, the “recombinant UMI read abundance (log10)” value came out at 2.07. Take “GTCAGGACATGGACCGGTTTTCCCGGTAATCCGTATTTGTC (site GTCAGGACTGA)”: the “recombinant UMI read abundance (log10)” value came to 2.38. With “GTCATGGCATGGACCGGTTTTCCCGGTAATCCGTATTTGAA (site GTCATGGCTTT)” the figure was 1.99; with “GTCCCATCATGGACCGGTTTTCCCGGTAATCCGTATTTGCG (site GTCCCATCTCG)”, 1.31. Regarding “GTCCCCACATGGACCGGTTTTCCCGGTAATCCGTATTTGTA (site GTCCCCACTTA)”, the “recombinant UMI read abundance (log10)” value turned out to be 1.14. With “GTCCGACCATGGACCGGTTTTCCCGGTAATCCGTATTTGCA (site GTCCGACCTTG)”, the “recombinant UMI read abundance (log10)” value came out at 0. On to “GTCCGAGCATGGACCGGTTTTCCCGGTAATCCGTATTTGCA (site GTACGAGCTTG)”, for which the “recombinant UMI read abundance (log10)” value was determined as 0.

For the sequence “GTCCGAGCATGGACCGGTTTTCCCGGTAATCCGTATTTGCA (site GTCCGAGCTTG)”, the “recombinant UMI read abundance (log10)” value worked out at 1.59. In the case of “GTCCGAGCATGGACCGGTTTTCCCGGTAATCCGTATTTGCA (site GTGCGAGCTTG)”, the “recombinant UMI read abundance (log10)” value came to 0.297. “GTCCGAGCATGGACCGGTTTTCCCGGTAATCCGTATTTGCA (site GTTCGAGCTTG)”: the “recombinant UMI read abundance (log10)” value was found to be 0. With “GTCCTGCCATGGACCGGTTTTCCCGGTAATCCGTATTTGGC (site GTCCTGCCTGC)”, the “recombinant UMI read abundance (log10)” value is 0. As for “GTCGAATCATGGACCGGTTTTCCCGGTAATCCGTATTTGGT (site GTCGAATCTAC)”, the “recombinant UMI read abundance (log10)” value amounted to 2.07. Take “GTCGCCCCATGGACCGGTTTTCCCGGTAATCCGTATTTGGC (site GTCGCCCCTGC)”: the “recombinant UMI read abundance (log10)” value turned out to be 0. As for “GTCGCGTCATGGACCGGTTTTCCCGGTAATCCGTATTTGGA (site GTCGCGTCTTC)”, the “recombinant UMI read abundance (log10)” value was determined as 1.24. Regarding “GTCGGCCCATGGACCGGTTTTCCCGGTAATCCGTATTTGTG (site GTCGGCCCTCA)”, the “recombinant UMI read abundance (log10)” value is 0.00361. On to “GTCGGGGCATGGACCGGTTTTCCCGGTAATCCGTATTTGTT (site GTCGGGGCTAA)”, for which the “recombinant UMI read abundance (log10)” value was 0.949. As for “GTCGTATCATGGACCGGTTTTCCCGGTAATCCGTATTTGTC (site GTCGTATCTGA)”, the “recombinant UMI read abundance (log10)” value turned out to be 2.7.

Turning to “GTCTAACCATGGACCGGTTTTCCCGGTAATCCGTATTTGTC (site GTCTAACCTGA)”, the “recombinant UMI read abundance (log10)” value came out at 0. Consider “GTCTACACATGGACCGGTTTTCCCGGTAATCCGTATTTGAG (site GTCTACACTCT)”, for which the “recombinant UMI read abundance (log10)” value came out at 0.832. Take “GTCTACACATGGACCGGTTTTCCCGGTAATCCGTATTTGCT (site ATCTACACTAG)”: the “recombinant UMI read abundance (log10)” value stood at 1.33. With “GTCTACACATGGACCGGTTTTCCCGGTAATCCGTATTTGCT (site CTCTACACTAG)” the figure was 1.44; with “GTCTACACATGGACCGGTTTTCCCGGTAATCCGTATTTGCT (site GTCTACACTAG)”, 2.05.

Turning to “GTCTACACATGGACCGGTTTTCCCGGTAATCCGTATTTGCT (site TTCTACACTAG)”, the “recombinant UMI read abundance (log10)” value was 1.44.

On to “GTCTAGACATGGACCGGTTTTCCCGGTAATCCGTATTTGCA (site GTCTAGACTTG)”, for which the “recombinant UMI read abundance (log10)” value worked out at 2.13. On to “GTCTGCCCATGGACCGGTTTTCCCGGTAATCCGTATTTGCG (site GTCTGCCCTCG)”, for which the “recombinant UMI read abundance (log10)” value amounted to 0.0315. With “GTCTTCCCATGGACCGGTTTTCCCGGTAATCCGTATTTGCA (site GTCTTCCCTTG)” the figure was 0. The figure for “GTGAAGACATGGACCGGTTTTCCCGGTAATCCGTATTTGCA (site AGGAAGACTTG)” is 1.26; for “GTGAAGACATGGACCGGTTTTCCCGGTAATCCGTATTTGCA (site GTGAAGACTTG)” it is 2.72; for “GTGACAACATGGACCGGTTTTCCCGGTAATCCGTATTTGAC (site GTGACAACTGT)” it is 2.91. Take “GTGACACCATGGACCGGTTTTCCCGGTAATCCGTATTTGTT (site GTGACACCTAA)”: the “recombinant UMI read abundance (log10)” value worked out at 0.00775.

Take “GTGACCCCATGGACCGGTTTTCCCGGTAATCCGTATTTGCC (site GTGACCCCTGG)”: the “recombinant UMI read abundance (log10)” value was 1.83.

Regarding “GTGCAAACATGGACCGGTTTTCCCGGTAATCCGTATTTGTG (site GTGCAAACTCA)”, the “recombinant UMI read abundance (log10)” value was found to be 2.04. As for “GTGCATCCATGGACCGGTTTTCCCGGTAATCCGTATTTGCA (site GTGCATCCTTG)”, the “recombinant UMI read abundance (log10)” value turned out to be 1.03. With “GTGCATGCATGGACCGGTTTTCCCGGTAATCCGTATTTGGA (site GTGCATGCTAC)” the figure was 0.00401; with “GTGCATGCATGGACCGGTTTTCCCGGTAATCCGTATTTGGA (site GTGCATGCTCC)”, 0.296; with “GTGCATGCATGGACCGGTTTTCCCGGTAATCCGTATTTGGA (site GTGCATGCTGC)”, 0. In the case of “GTGCATGCATGGACCGGTTTTCCCGGTAATCCGTATTTGGA (site GTGCATGCTTC)”, the “recombinant UMI read abundance (log10)” value is 1.28. With “GTGCATGCATGGACCGGTTTTCCCGGTAATCCGTATTTGGC (site GTGCATGCTAC)” the figure was 0.31.

On to “GTGCATGCATGGACCGGTTTTCCCGGTAATCCGTATTTGGC (site GTGCATGCTCC)”, for which the “recombinant UMI read abundance (log10)” value came out at 0. With “GTGCATGCATGGACCGGTTTTCCCGGTAATCCGTATTTGGC (site GTGCATGCTGC)”, the “recombinant UMI read abundance (log10)” value was found to be 2.28.

Turning to “GTGCATGCATGGACCGGTTTTCCCGGTAATCCGTATTTGGC (site GTGCATGCTTC)”, the “recombinant UMI read abundance (log10)” value amounted to 0.89.
